These are literature values, as cited in patent publication EP4756025A1, “DSRNA TARGETING MAPT AND PHARMACEUTICAL USE THEREOF” (Tuojie Biotech (Shanghai) Co., Ltd., priority 2023, dated 2025).

For this data set the following is noted: octanol-water partition coefficient, example in the definition of lipophilic moiety.

As for `NCCCCCCO` [6-aminohexanol], the logKow result was “about 0.7”.

`CC(C)CCC[C@@H](C)[C@H]1CC[C@H]2[C@@H]3CC=C4C[C@@H](OC(=O)NCCCCCCO)CC[C@]4(C)[C@H]3CC[C@]12C` [cholesteryl N-(hexan-6-ol)carbamate]: the logKow is 10.7.
